Article PMC3899110 (Methods (San Diego, Calif.), 2013)
Read-outs that look alike come from different tables or passages of the source.

Tests used:
LYP [1] = biological target: T1, LYP (Homo sapiens, UniProt Q9Y2R2); assay: LYP inhibition, follow-up of the 1536-well HTS, pCAP or OMFP substrate; format: biochemical
T1 sequence (Q9Y2R2 24-289 limits assumed): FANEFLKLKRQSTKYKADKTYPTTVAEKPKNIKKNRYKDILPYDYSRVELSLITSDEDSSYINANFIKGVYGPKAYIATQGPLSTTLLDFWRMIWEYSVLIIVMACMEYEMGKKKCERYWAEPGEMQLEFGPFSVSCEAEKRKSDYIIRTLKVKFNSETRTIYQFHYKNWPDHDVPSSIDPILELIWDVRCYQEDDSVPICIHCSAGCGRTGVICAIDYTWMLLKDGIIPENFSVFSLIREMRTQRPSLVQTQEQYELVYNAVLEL

LYP [2] = biological target: T1, LYP; settings: Spectrum collection screen, cited from earlier work
LYP [3] = biological target: T1, LYP; format: biochemical; settings: for kcat: pH 6.5

Compound	IC50 (LYP [1]; read-out: IC50, OMFP substrate, assayed using the OMFP substrate) [µM]	IC50 (LYP [1]; read-out: IC50, pCAP substrate, assayed using the pCAP substrate) [µM]	inhibition of LYP activity, DiFMUP-based screen (LYP [2]; DiFMUP as substrate) [%]	inhibition of LYP activity, peptide-based screen (LYP [2]; peptide 2 as substrate)	Km (LYP [3]) [µM]	kcat/Km (LYP [3])	kcat (LYP [3]) [s⁻¹]
O=C(O)COc1ccc(/C=N/NC(=O)c2ccc(-c3csc(Nc4ccc(Cl)cc4)n3)cc2)cc1 [CID9595032]	1.5	0.53	–	–	–	–	–
Cc1ccc(C(=O)Nc2ccc(S(=O)(=O)O)c3cc(S(=O)(=O)O)cc(S(=O)(=O)O)c23)cc1NC(=O)c1cccc(NC(=O)Nc2cccc(C(=O)Nc3cc(C(=O)Nc4ccc(S(=O)(=O)O)c5cc(S(=O)(=O)O)cc(S(=O)(=O)O)c45)ccc3C)c2)c1 [suramin]	–	–	~40	nearly all	–	–	–
Ac-ARLIEDNE-pCAP-TAREG-NH2 [Peptide 2]	–	–	–	–	200 ± 60	27,000,000 M^−1s^−1	5400 ± 1000
Ac-ARLIEDNE-pY-TAREG-NH2 [Peptide 2a]	–	–	–	–	130 ± 20	52,000,000 M^−1s^−1	6700 ± 400
